A short description of series [1]: Mechanical allodynia dose-response in CCI rats (von Frey filaments, % MPE). Format: in vivo, rat. To be noted: 7 days post-CCI.
A short description of series [2]: Thermal hypernociception in CCI rats (Hargreaves test, % MPE). Format: in vivo, rat. To be noted: for % MPE, thermal hypernociception: first administration.
Series [3] can be described thus: Histopathological study of sciatic nerve (Wallerian degeneration). To be noted: CCI or sham rats; hematoxylin and eosin, light microscopy.
The nature of series [4]: Spontaneous withdrawal symptoms to morphine. Format: in vivo, rat. The note with it: JM-20 co-treatment; day 1 of withdrawal after chronic morphine.
Text: In this experiment we studied some somatic behaviors and symptoms in the rat associated with spontaneous withdrawal to morphine (jumping or escape attempts, tremors, mastication, piloerection, head shaking).
A short description of series [5]: Mechanical hypernociception dose-response in CCI rats (electronic von Frey, % MPE). The note with it: for ED50: Rattus norvegicus, 168 h, single dose, doses given in mg/kg. Format: in vivo, rat.
Series [6] is described as follows: Intensity of mechanical hypernociception (electronic von Frey) in CCI or sham rats after chronic morphine or saline.
A short description of series [7]: General behavioral evaluation of the nervous system (placing/stepping, righting, pinna, corneal reflexes; signs of CNS depression).
The conditions of series [8]: 22 rpm, mean ± SEM, n = 6.
Experimental: Young rats (8-10 weeks) Sprague Dawley (SD) (males, 168-240 g) from the National Center for the Production of Laboratory Animals (CENPALAB, Havana, Cuba) were used, adapted for seven days to the conditions of the laboratory. The animals were kept under an alternating cycle of light and dark every 12 h, the temperature was controlled between 25-27° C. and an EMO 1001 diet established for the laboratory animals. After the adaptation period, the animals were distributed in the different groups according to their body weights. Water and food were kept available ad libitum. […] To induce tolerance/hyperalgesia to morphine, it was administered to the animals subcutaneously (10 mg/kg, 1 mUkg, s.c.) twice a day every 12 h for 10 days or saline solution (Cao, J L et al. 2005 Pharmacol Biochem and Behay. 80: 493-503), after oral administration of JM-20 or its vehicle, carboxymethylcellulose (0.5% CMC in distilled water, 10mUkg, p.o.) 1h before. Correspondingly, the following groups were constituted: CMC-SS (n=6), CMC-MOR (n=6), JM-20-SS (n=6), JM-20 (5mg/kg)-MOR (n=6) and JM-20 (20mg/kg)-MOR (n=6).
Series [9] is described as follows: Morphine-induced tolerance/hyperalgesia in healthy rats (von Frey filaments, electronic von Frey, hot plate, formalin test). Format: in vivo, rat. An excerpt: (NIH Publication No. 85-23, revised 1996).
The mark [10] stands for this setting: day 1, 45 min after first morphine or saline dose, 105 min after JM-20 (20 mg/kg, p.o.) or CMC.
Where [11] appears, read: day 5, 45 min after morphine or saline, 105 min after JM-20 (20 mg/kg, p.o.) or CMC.
Setting [12] is: day 1, 45 min after first dose of morphine or saline, 105 min after JM-20 (20 mg/kg, p.o.) or CMC.
The mark [13] stands for this setting: day 5, 45 min after morphine or saline dose, 105 min after JM-20 (20 mg/kg, p.o.) or CMC.

Values joined by “and” are separate entries in the source; they are usually repeats but may differ in a detail not shown here. Equal entries are not always repeated. Where two headings read alike, the source gives them in different places. Marks after values point to notes of the source that are not given here.

The text below walks through data of patent publication US20230054379A1, “COMPOSITION AND METHOD OF TREATMENT TO SIMU[…] THE […] EFFICACY OF OPIOIDS AND REDUCE THEIR ADDICTIVE POWER” (Centro de Investigacion Y Desarrollo de Medicamentos (CIDEM), priority 2020, published 2023).

For `CCOC(=O)C1=C(C)NC2=C(C=Nc3ccccc3N2)C1c1ccccc1[N+](=O)[O-]` (centres unmarked) [JM-20, 3-ethoxycarbonyl-2-methyl-4-(2-nitrophenyl)-4,11-dihydro-1H-pyrido [2,3-b] [1,5] benzodiazepine], the “% MPE, mechanical allodynia” value was 24.97±8.5% in [1] (JM-20 2.5 mg/kg p.o., 1 h after first administration); 50.21±7.6% in [1] (JM-20 5 mg/kg p.o., 1 h after first administration); 48.68±7.6% in [1] (JM-20 10 mg/kg p.o., 1 h after first administration); 64.25±9.7% in series [1] (JM-20 20 mg/kg p.o., 1 h after first administration). For the same compound, the ED50 in series [1] (Rattus norvegicus, po, 168 h, JM-20 p.o., single dose, doses given in mg/kg) was 8.44 ± 1.9 mg/kg; in series [5] (po, JM-20 p.o., 7 days post-CCI) it was 12.4 ± 6.4 mg/kg. The “Effect on withdrawal thresholds in the Hargreaves test” value in series [2] (JM-20 2.5-20 mg/kg p.o., after first administration or repeated doses at 14 days post-CCI) was “did not increase withdrawal thresholds significantly”. Besides, in [3], the “Qualitative histopathological changes of the sciatic nerve (Wallerian degeneration, cellularity)” value (shortened to “Qualitative histopathological changes”) is “still exerts its neuroprotective effect”. In addition, the “Spontaneous somatic withdrawal symptoms after withdrawal of morphine” value in series [4] is listed as “significantly reduced”. The “% MPE, intensity of mechanical hypernociception” value (“% MPE, intensity” for short) was 32.26±4.2% in [5] (JM-20 2.5 mg/kg p.o., 60 minutes after first dose, 7 days post-CCI); 40.86±7.1% in series [5] (JM-20 2.5 mg/kg p.o., 14 days post-CCI after repeated doses); 48.02±6.3% in series [5] (JM-20 5 mg/kg p.o., 60 minutes after first dose, 7 days post-CCI); 38.13±9.4% in series [5] (JM-20 5 mg/kg p.o., 14 days post-CCI after repeated doses); 39.20±7.9% in [5] (JM-20 10 mg/kg p.o., 60 minutes after first dose, 7 days post-CCI); 46.18±5.7% in [5] (JM-20 10 mg/kg p.o., 14 days post-CCI after repeated doses). Also, the “% MPE, intensity” value worked out at 58.15±7.3% in [5] (JM-20 20 mg/kg p.o., 60 minutes after first dose, 7 days post-CCI) and 55.28±8.3% in series [5] (JM-20 20 mg/kg p.o., 14 days post-CCI after repeated doses). Moreover, the “Neuroadaptations (tolerance/hyperalgesia) after repeated administration” value in series [5] (JM-20 p.o. for 8 days, mechanical hypernociception at days 14, 15-16 post-CCI) was “neuroadaptations (tolerance/hyperalgesia) were not observed”. Further, the “Intensity of mechanical hypernociception, difference (Δ) of the withdrawal threshold” value in series [6] (CCI rats, SS s/c + JM-20 10 mg/kg p.o. for 5 days, day 11 post-surgery, 6 hours after last JM-20, 10 mg/kg) is 10.68±5.89 grams and 10.68 ± 5.89*≠ grams; in [6] (CCI rats, SS s/c + JM-20 10 mg/kg p.o. for 5 days, day 23 post-surgery, 12 days after discontinuation of JM-20, 10 mg/kg) it was 5.93±2.65 grams and 5.93 ± 2.65*≠ grams; in series [6] (CCI rats, saline (SS) s/c + JM-20 10 mg/kg p.o. group, day 7 post-surgery, prior to start of treatments), 41.55 ± 1.50 grams. Further, the “Corneal reflex, % of animals showing the reflex” value was determined as 100% in series [7] (setting [10]); 100% in series [7] (setting [11]); 100% in series [7] (day 11, without medications). Also, the “Pinna reflex, % of animals showing the reflex” value was 100% in series [7] (setting [10]); 100% in [7] (setting [11]); 100% in [7] (day 11, without medications). The “Placing/stepping reflex, % of animals showing the reflex” value in [7] (setting [10]) amounted to 100%; in series [7] (setting [11]) it was 100%; in series [7] (day 11, without medications), 100%. Also, the “Righting reflex, % of animals showing the reflex” value in [7] (setting [10]) is 100%; in [7] (setting [11]), 100%; in [7] (day 11, without medications) it was 100%. Also, the “Rota-rod motor performance (Latency sec)” value was 59 ± 0.5^b sec in series [8] (setting [12]); 59 ± 0.5 s in series [8] (setting [13]); 60 s in series [8] (day 11, without medications). The “Response to mechanical and thermal stimuli versus control group (CMC-SS)” value in series [9] (JM-20-SS group, non-injured rats) is on record as “did not show differences”. In addition, in series [9] (healthy rats, chronic morphine + JM-20 co-treatment, at 11 days), the “Thermal hyperalgesia (PWL, hot plate test)” value is on record as “prevented thermal hyperalgesia”. Also, in series [9] (healthy rats, morphine 10 mg/kg s.c. twice a day for 10 days, JM-20 p.o. co-treatment 1 h before), the “Percentage response to 4 g VFF and 15 g VFF and withdrawal threshold (Δ)” value is “significantly reduced”. Also, the “Nociceptive scores in the 5% formalin test” value in [9] (tolerant/hyperalgesic rats, day 11, test dose of morphine 5 mg/kg i.p., both phases) is listed as “significantly improved nociceptive scores”.

Turning to `NCC1(CC(=O)O)CCCCC1` [gabapentin], in series [3], the “Qualitative histopathological changes” value is on record as “decrease in these alterations”.

Take `CN1CC[C@]23c4c5ccc(O)c4O[C@H]2[C@@H](O)C=C[C@H]3[C@H]1C5` [morphine, reference compound]: the “% MPE, mechanical allodynia” value in [1] (morphine 10 mg/kg s.c., first administration) stood at 100%. Besides, the ED50 came to 3.17 ± 0.4 mg/kg in series [2] (Rattus norvegicus, sc, 168 h, morphine s.c., single dose, 7 days post-CCI, doses given in mg/kg) and 5.63 ± 0.8 mg/kg in series [5] (sc, morphine s.c., 7 days post-CCI). Moreover, the “% MPE, thermal hypernociception” value came out at 30.0±13% in series [2] (morphine 3 mg/kg s.c., 7 days post-CCI) and 95.69±3.4% in series [2] (morphine 10 mg/kg s.c., 7 days post-CCI). Moreover, the “Qualitative histopathological changes” value in series [3] is listed as “minimal increase in cellularity”. The “% MPE, intensity” value in [5] (morphine 3 mg/kg s.c., 14 days post-CCI after 8 repeated doses) amounted to 1.36±0.5%; in [5] (morphine 3 mg/kg s.c., first administration, 7 days post-CCI), 17.67±2.8%; in series [5] (morphine 5 mg/kg s.c., 14 days post-CCI after 8 repeated doses), 6.10±1.0%; in [5] (morphine 5 mg/kg s.c., first administration, 7 days post-CCI) it was 48.05±2.9%; in series [5] (morphine 10 mg/kg s.c., 14 days post-CCI after 8 repeated doses), 14.18±4.7%; in series [5] (morphine 10 mg/kg s.c., first administration, 7 days post-CCI), 72.22±4.6%. Besides, the “Intensity of mechanical hypernociception, difference (Δ) of the withdrawal threshold” value is 41.22±1.58 grams in series [6] (CCI rats, morphine group (vehicle p.o.), day 7 post-surgery, prior to start of treatments); 41.22 ± 1.58 grams in [6] (CCI rats, morphine group (vehicle p.o.), day 7 post-surgery, prior to start of treatments, listed as MOR); 2.06 ± 2.96≠ grams in series [6] (Sham CCI rats, morphine group, day 7 post-surgery, prior to start of treatments). For the same compound, the “Corneal reflex, % of animals showing the reflex” value turned out to be 100% in series [7] (setting [10]); 100% in series [7] (setting [11]); 100% in series [7] (day 11, without medications). Moreover, the “Pinna reflex, % of animals showing the reflex” value in [7] (setting [10]) was 100%; in series [7] (setting [11]), 100%; in series [7] (day 11, without medications), 100%. Moreover, the “Placing/stepping reflex, % of animals showing the reflex” value in [7] (setting [10]) was found to be 100%; in series [7] (setting [11]), 100%; in [7] (day 11, without medications), 100%. Also, the “Righting reflex, % of animals showing the reflex” value in series [7] (setting [10]) came out at 100%; in series [7] (setting [11]), 100%; in [7] (day 11, without medications), 100%. Further, the “Rota-rod motor performance (Latency sec)” value in series [8] (setting [12]) was 16 ± 1.9^a sec; in series [8] (setting [13]) it was 57 ± 1.8 s; in series [8] (day 11, without medications), 60 s.
